Key:
[1] = test system: Interferon-response proteins in DL-40 ALCL xenograft tumors; assay: Global proteomics and gene ontology of DL-40 ALCL xenograft tumors, 48 hours after dose; format: in vivo, mice; parameters: Log2 vs Vehicle, 0AS1: dose or concentration left out as unconfirmed
Experimental: […] Gene ontology analysis was done by using BINGO, a Java-based tool that is implemented as a plugin for Cytoscape. Default settings were used to assess the overexpression of GO categories and the interactions among altered proteins were determined using the STRING database, with a cutoff score of 700.

[2] = test system: REC1 mantle cell lymphoma tumors; assay: REC1 mantle cell lymphoma xenograft, balb/c nude mice; format: in vivo
Experimental: A xenograft study was conducted in female balb/c nude mice bearing REC1 mantle cell lymphoma tumors.
Statistical analysis was performed using two-way analysis of variance (ANOVA). Data are expressed as MTV±SEM.

O=C1CC[C@H](N2C(=O)c3cccc4c(Cc5ccc(CN6CCOCC6)cc5)ccc2c34)C(=O)N1 (single isomer, unassigned) [Compound 1]
Log2 vs Vehicle, MT2A ([1]; 0.1 nM for 48 hr): −0.297 | Log2 vs Vehicle, MX1 ([1]; 0.1 nM for 48 hr): 1.715 | Log2 vs Vehicle, MX2 ([1]; 0.1 nM for 48 hr): 0.83 | Log2 vs Vehicle, NCAM1 ([1]; 0.1 nM for 48 hr): −0.127 | Log2 vs Vehicle, NDC1 ([1]; 0.1 nM for 48 hr): −0.063 | Log2 vs Vehicle, NEDD4 ([1]; 0.1 nM for 48 hr): 0.375 | Log2 vs Vehicle, NUP35 ([1]; 0.1 nM for 48 hr): −0.023 | Log2 vs Vehicle, NUP37 ([1]; 0.1 nM for 48 hr): −0.009 | Log2 vs Vehicle, NUP43 ([1]; 0.1 nM for 48 hr): −0.042 | Log2 vs Vehicle, NUP50 ([1]; 0.1 nM for 48 hr): −0.009 | Log2 vs Vehicle, NUP54 ([1]; 0.1 nM for 48 hr): 0.014 | Log2 vs Vehicle, NUP62 ([1]; 0.1 nM for 48 hr): −0.019 | Log2 vs Vehicle, NUP85 ([1]; 0.1 nM for 48 hr): −0.05 | Log2 vs Vehicle, NUP88 ([1]; 0.1 nM for 48 hr): 0.031 | Log2 vs Vehicle, NUP93 ([1]; 0.1 nM for 48 hr): 0.029 | Log2 vs Vehicle, NUP107 ([1]; 0.1 nM for 48 hr): 0.033 | Log2 vs Vehicle, NUP133 ([1]; 0.1 nM for 48 hr): −0.019 | Log2 vs Vehicle, NUP153 ([1]; 0.1 nM for 48 hr): −0.013 | Log2 vs Vehicle, NUP155 ([1]; 0.1 nM for 48 hr): 0.001 | Log2 vs Vehicle, NUP160 ([1]; 0.1 nM for 48 hr): 0.026 | Log2 vs Vehicle, NUP188 ([1]; 0.1 nM for 48 hr): 0.029 | Log2 vs Vehicle, NUP205 ([1]; 0.1 nM for 48 hr): −0.001 | Log2 vs Vehicle, NUP210 ([1]; 0.1 nM for 48 hr): 0.045 | Log2 vs Vehicle, NUP214 ([1]; 0.1 nM for 48 hr): −0.08 | Log2 vs Vehicle, NUPL2 ([1]; 0.1 nM for 48 hr): 0.073 | Log2 vs Vehicle, OAS2 ([1]; 0.1 nM for 48 hr): 0.478 | Log2 vs Vehicle, OAS3 ([1]; 0.1 nM for 48 hr): 0.884 | Log2 vs Vehicle, OASL ([1]; 0.1 nM for 48 hr): 0.111 | Log2 vs Vehicle, P0M121 ([1]; 0.1 nM for 48 hr): −0.05 | Log2 vs Vehicle, P0M121C ([1]; 0.1 nM for 48 hr): −0.039 | Log2 vs Vehicle, PDE12 ([1]; 0.1 nM for 48 hr): 0.013 | Log2 vs Vehicle, PIAS1 ([1]; 0.1 nM for 48 hr): −0.114 | Log2 vs Vehicle, PINI ([1]; 0.1 nM for 48 hr): 0.05 | Log2 vs Vehicle, PLCG1 ([1]; 0.1 nM for 48 hr): 0.052 | Log2 vs Vehicle, PML ([1]; 0.1 nM for 48 hr): 0.176 | Log2 vs Vehicle, PPM1B ([1]; 0.1 nM for 48 hr): −0.001 | Log2 vs Vehicle, PRKCD ([1]; 0.1 nM for 48 hr): 0.506 | Log2 vs Vehicle, PSMB8 ([1]; 0.1 nM for 48 hr): 0.021 | Log2 vs Vehicle, PTPN1 ([1]; 0.1 nM for 48 hr): 0.009 | Log2 vs Vehicle, PTPN6 ([1]; 0.1 nM for 48 hr): 0.402 | Log2 vs Vehicle, PTPN11 ([1]; 0.1 nM for 48 hr): 0.001 | Log2 vs Vehicle, RAE1 ([1]; 0.1 nM for 48 hr): −0.034 | Log2 vs Vehicle, RANBP2 ([1]; 0.1 nM for 48 hr): −0.044 | Log2 vs Vehicle, RNASEL ([1]; 0.1 nM for 48 hr): −0.218 | Log2 vs Vehicle, RPS27A ([1]; 0.1 nM for 48 hr): −0.054 | Log2 vs Vehicle, SAMHD1 ([1]; 0.1 nM for 48 hr): 0.128 | Log2 vs Vehicle, SP100 ([1]; 0.1 nM for 48 hr): −0.028 | Log2 vs Vehicle, STAT1 ([1]; 0.1 nM for 48 hr): 0.218 | Log2 vs Vehicle, STAT2 ([1]; 0.1 nM for 48 hr): 0.271 | Log2 vs Vehicle, TPR ([1]; 0.1 nM for 48 hr): −0.053 | Log2 vs Vehicle, TRIM5 ([1]; 0.1 nM for 48 hr): 0.107 | Log2 vs Vehicle, TRIM14 ([1]; 0.1 nM for 48 hr): 0.183 | Log2 vs Vehicle, TRIM21 ([1]; 0.1 nM for 48 hr): 0.175 | Log2 vs Vehicle, TRIM22 ([1]; 0.1 nM for 48 hr): 0.331 | Log2 vs Vehicle, TRIM25 ([1]; 0.1 nM for 48 hr): 0.161 | Log2 vs Vehicle, TRIM26 ([1]; 0.1 nM for 48 hr): 0.019 | Log2 vs Vehicle, TRIM35 ([1]; 0.1 nM for 48 hr): 0.144 | Log2 vs Vehicle, TRIM38 ([1]; 0.1 nM for 48 hr): 0.119 | Log2 vs Vehicle, TYK2 ([1]; 0.1 nM for 48 hr): −0.039 | Log2 vs Vehicle, UBA7 ([1]; 0.1 nM for 48 hr): 0.366 | Log2 vs Vehicle, UBE2E1 ([1]; 0.1 nM for 48 hr): −0.218 | Log2 vs Vehicle, UBE2L6 ([1]; 0.1 nM for 48 hr): 0.13 | Log2 vs Vehicle, UBE2N ([1]; 0.1 nM for 48 hr): 0.02 | Log2 vs Vehicle, VCAM1 ([1]; 0.1 nM for 48 hr): −0.744 | network impacted (gene ontology) ([1]; 48 hours after oral 100 μg/kg): Interferon (IFN) signaling was the most prominent network impacted | Log2 vs Vehicle, 0AS1 ([1]; for 48 hr): 1.414 | Statistical Significance Compared to Vehicle ([2]; 30 μg/kg PO daily): 0.04 | Statistical Significance Compared to Vehicle ([2]; 100 μg/kg PO daily): 0.04 | tumor volume ([2]; Compound 1 10, 30, or 100 μg/kg, pomalidomide 3000 μg/kg, 18 days): decreased

— patent US20230190760A1, “ADVANTAGEOUS THERAPIES FOR DISORDERS MEDIATED BY IKAROS OR AIOLOS” (C4 Therapeutics, Inc., priority 2020, published 2023)
